Test results reported in US20250034216A1, “STEREOSELECTIVE COVALENT LIGANDS FOR ONCOGENIC AND IMMUNOLOGICAL PROTEINS” (The Scripps Research Institute, priority 2021, published 2025).

How the values were obtained:
Assay in all cases: IA-DTB cysteine engagement
Type in all cases: binding
REEP5_C18 = target: T1, REEP5_C18 (Homo sapiens, UniProt Q00765); conditions: 22Rv1 cells, relative to DMSO; for % engagement REEP5_C18: 20 μM probe, 1 h; for % engagement REEP5_18: 5 μM probe, 1 h (FIG. 5B)
T1 construct: endogenous in cells; host or cells: 22Rv1
Outline: (§1)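 Probe-exposed cells were lysed, IA-DTB-labeled, trypsinized and streptavidin-enriched. Multiplexed TMT quantitation gave engagement ratios versus DMSO, with non-tryptic peptides excluded and intensities normalized to median summed signal.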

KRTCAP3_C197 = target: T2, KRTCAP3_C197 (Homo sapiens, UniProt Q53RY4); conditions: 22Rv1 cells, 20 μM probe, 1 h, relative to DMSO
T2 construct: endogenous in cells; host or cells: 22Rv1
T2 sequence (Q53RY4 1-240): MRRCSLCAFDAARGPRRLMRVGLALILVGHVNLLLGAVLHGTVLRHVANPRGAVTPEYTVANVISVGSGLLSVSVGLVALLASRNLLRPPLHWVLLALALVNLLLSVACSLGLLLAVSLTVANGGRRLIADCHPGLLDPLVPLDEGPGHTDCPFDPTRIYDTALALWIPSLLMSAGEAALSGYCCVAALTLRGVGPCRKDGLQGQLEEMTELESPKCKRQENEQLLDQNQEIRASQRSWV
Outline: as §1

PSME1_C22 = target: T3, PSME1_C22 (Homo sapiens, UniProt Q06323); conditions: 22Rv1 cells, relative to DMSO; for % engagement PSME1_C22: 20 μM probe, 1 h; for % engagement PSME1_22: 5 μM probe, 1 h (FIG. 5B)
T3 construct: endogenous in cells; host or cells: 22Rv1
Outline: as §1

CENPC_C291 = target: T4, CENPC_C291 (Homo sapiens, UniProt Q03188); conditions: 22Rv1 cells, 20 μM probe, 1 h, relative to DMSO
T4 construct: endogenous in cells; host or cells: 22Rv1
Outline: as §1

CPT1A_C96 = target: T5, CPT1A_C96 (Homo sapiens, UniProt P50416); conditions: 22Rv1 cells, 20 μM probe, 1 h, relative to DMSO
T5 construct: endogenous in cells; host or cells: 22Rv1
T5 sequence (P50416 1-773): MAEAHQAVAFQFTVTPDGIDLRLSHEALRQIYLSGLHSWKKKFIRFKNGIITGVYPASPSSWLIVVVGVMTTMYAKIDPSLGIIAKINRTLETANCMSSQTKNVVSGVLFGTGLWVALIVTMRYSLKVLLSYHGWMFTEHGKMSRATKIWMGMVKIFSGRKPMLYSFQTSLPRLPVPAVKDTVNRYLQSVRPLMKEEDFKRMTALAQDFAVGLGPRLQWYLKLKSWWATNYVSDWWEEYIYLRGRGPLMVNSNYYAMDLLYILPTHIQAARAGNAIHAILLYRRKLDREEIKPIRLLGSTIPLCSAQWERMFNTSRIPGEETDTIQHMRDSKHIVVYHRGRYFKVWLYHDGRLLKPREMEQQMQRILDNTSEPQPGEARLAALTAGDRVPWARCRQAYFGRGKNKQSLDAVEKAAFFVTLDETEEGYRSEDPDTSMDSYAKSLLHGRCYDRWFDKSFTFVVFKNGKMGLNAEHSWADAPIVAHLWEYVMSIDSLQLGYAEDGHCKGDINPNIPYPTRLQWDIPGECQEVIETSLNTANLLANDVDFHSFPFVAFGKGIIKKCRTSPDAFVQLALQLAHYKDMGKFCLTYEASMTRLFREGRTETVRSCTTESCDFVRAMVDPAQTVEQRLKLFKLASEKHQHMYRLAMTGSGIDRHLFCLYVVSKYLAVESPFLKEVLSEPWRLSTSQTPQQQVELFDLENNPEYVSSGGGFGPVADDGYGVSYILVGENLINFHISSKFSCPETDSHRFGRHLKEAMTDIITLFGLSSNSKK
Outline: as §1

T4 sequence (Q03188 whole entry): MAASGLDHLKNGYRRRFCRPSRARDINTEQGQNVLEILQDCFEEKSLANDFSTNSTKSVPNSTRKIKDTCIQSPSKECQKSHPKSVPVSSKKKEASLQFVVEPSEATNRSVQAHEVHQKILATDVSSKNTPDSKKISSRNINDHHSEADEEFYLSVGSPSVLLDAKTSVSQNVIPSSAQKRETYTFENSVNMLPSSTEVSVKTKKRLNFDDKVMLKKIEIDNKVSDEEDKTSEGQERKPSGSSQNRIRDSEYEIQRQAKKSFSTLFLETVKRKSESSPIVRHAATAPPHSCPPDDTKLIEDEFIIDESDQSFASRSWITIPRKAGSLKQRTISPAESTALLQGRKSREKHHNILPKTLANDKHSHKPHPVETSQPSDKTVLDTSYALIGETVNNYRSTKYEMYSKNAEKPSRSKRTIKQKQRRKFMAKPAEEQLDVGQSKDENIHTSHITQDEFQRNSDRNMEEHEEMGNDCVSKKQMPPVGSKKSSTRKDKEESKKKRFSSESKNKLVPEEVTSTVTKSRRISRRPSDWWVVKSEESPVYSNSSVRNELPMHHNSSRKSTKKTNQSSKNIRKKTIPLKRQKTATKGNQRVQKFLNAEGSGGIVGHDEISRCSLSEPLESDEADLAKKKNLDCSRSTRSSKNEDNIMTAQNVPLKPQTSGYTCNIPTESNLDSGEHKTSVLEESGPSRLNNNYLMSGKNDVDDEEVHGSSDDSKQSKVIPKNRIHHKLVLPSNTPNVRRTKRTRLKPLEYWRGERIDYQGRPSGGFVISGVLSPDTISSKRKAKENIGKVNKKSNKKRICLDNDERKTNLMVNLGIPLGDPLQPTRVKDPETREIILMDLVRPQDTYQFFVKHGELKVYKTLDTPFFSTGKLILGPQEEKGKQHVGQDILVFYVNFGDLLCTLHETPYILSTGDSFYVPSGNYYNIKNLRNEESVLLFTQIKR
T3 sequence (Q06323 whole entry): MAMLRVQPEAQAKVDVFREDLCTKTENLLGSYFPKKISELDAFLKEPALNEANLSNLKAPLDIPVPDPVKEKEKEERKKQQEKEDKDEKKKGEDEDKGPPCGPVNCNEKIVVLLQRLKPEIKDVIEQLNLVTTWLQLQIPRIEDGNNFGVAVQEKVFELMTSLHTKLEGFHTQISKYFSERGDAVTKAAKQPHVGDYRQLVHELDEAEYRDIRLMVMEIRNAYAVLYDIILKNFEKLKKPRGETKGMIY
T1 sequence (Q00765 whole entry): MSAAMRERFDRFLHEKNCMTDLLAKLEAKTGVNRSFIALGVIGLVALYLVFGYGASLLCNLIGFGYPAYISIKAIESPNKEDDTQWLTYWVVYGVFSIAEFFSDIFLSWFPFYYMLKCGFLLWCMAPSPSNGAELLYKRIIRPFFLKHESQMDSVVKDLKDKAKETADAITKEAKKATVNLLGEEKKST

| Structure (SMILES) | % engagement REEP5_C18 (REEP5_C18) [%] | % engagement KRTCAP3_C197 (KRTCAP3_C197) [%] | % engagement PSME1_C22 (PSME1_C22) [%] | % engagement CENPC_C291 (CENPC_C291) [%] | % engagement CPT1A_C96 (CPT1A_C96) [%] | % engagement REEP5_18 (REEP5_C18) [%] | % engagement PSME1_22 (PSME1_C22) [%] |
| --- | --- | --- | --- | --- | --- | --- | --- |
| C=CC(=O)N1C[C@@H](c2ccc(Br)cc2)[C@H]1C(=O)Nc1cccc2cccnc12 [MY-1A, (2S,3R)-1-acryloyl-3-(4-bromophenyl)-N-(quinolin-8-yl)azetidine-2-carboxamide] | 91.75 | 61 | −2.25 | −1.5 | 87 | – | – |
| C=CC(=O)N1C[C@H](c2ccc(Br)cc2)[C@@H]1C(=O)Nc1cccc2cccnc12 [MY-1B, (2R,3S)-1-acryloyl-3-(4-bromophenyl)-N-(quinolin-8-yl)azetidine-2-carboxamide] | 97.5 | 69.5 | 67.75 | 7 | 84.75 | 79.00 | 44.38 |
| C=CC(=O)N1C[C@H](c2ccc(Br)cc2)[C@H]1C(=O)Nc1cccc2cccnc12 [MY-3A, (2S,3S)-1-acryloyl-3-(4-bromophenyl)-N-(quinolin-8-yl)azetidine-2-carboxamide] | 88.25 | 31 | −14.5 | 28 | 89.25 | – | – |

Further lines, results first:

| % engagement REEP5_C18 (REEP5_C18) [%] | % engagement KRTCAP3_C197 (KRTCAP3_C197) [%] | % engagement PSME1_C22 (PSME1_C22) [%] | % engagement CENPC_C291 (CENPC_C291) [%] | % engagement CPT1A_C96 (CPT1A_C96) [%] | % engagement REEP5_18 (REEP5_C18) [%] | % engagement PSME1_22 (PSME1_C22) [%] | Structure (SMILES) |
| --- | --- | --- | --- | --- | --- | --- | --- |
| 91.75 | 54 | −31.75 | 82.5 | 93.5 | – | – | C=CC(=O)N1C[C@H](c2ccc(Br)cc2)[C@H]1C(=O)Nc1cccc2cccnc12 [MY-3B, (2S,3S)-1-acryloyl-3-(4-bromophenyl)-N-(quinolin-8-yl)azetidine-2-carboxamide] |
| – | – | – | – | – | 22.75 | 69.50 | CC#CC(=O)N1C[C@H](c2ccc(Br)cc2)[C@@H]1C(=O)Nc1cccc2cccnc12 [MY-45B, (2R,3S)-3-(4-bromophenyl)-1-(but-2-ynoyl)-N-(quinolin-8-yl)azetidine-2-carboxamide] |
